Data set [1] is described as follows: Drug uptake in human T24 cell cytoskeleton at 2 uM after 1 hr by Dil-C28 dye staining-based inverted microscopic analysis. Format: ADME. The settings on record: t-24, 1 h.
Data set [2] is described as follows: Drug uptake in human T24 cell cytoplasm at 2 uM after 1 hr by Dil-C28 dye staining-based inverted microscopic analysis. It counts as ADME. The settings on record: t-24, 1 h.

With `CCCCCCN(CCCCCC)c1ccc(/C=C(\C#N)C(=O)OCCCCCNC(=O)c2cc3ccc(OC)cc3oc2=O)s1`, in data set [1], the Drug uptake entry is on record as “Active”.
As to `COc1ccc2cc(C(=O)NCCOCCOCCOC(=O)/C(C#N)=C/c3ccc(N4CCCCC4)s3)c(=O)oc2c1`, in data set [2], the Drug uptake entry is given as “Active”.

The values are drawn from ChEMBL document CHEMBL2046369, “Self-calibrating viscosity probes: design and subcellular localization” (Bioorg Med Chem, 2012).
